This passage reports Kd results from ChEMBL document CHEMBL1949552, “Synthesis and interaction with midkine of biotinylated chondroitin sulfate tetrasaccharides” (Bioorg Med Chem Lett, 2012).

This test addresses T1, Midkine (Homo sapiens, UniProt P21741).
T1 sequence (P21741 whole entry): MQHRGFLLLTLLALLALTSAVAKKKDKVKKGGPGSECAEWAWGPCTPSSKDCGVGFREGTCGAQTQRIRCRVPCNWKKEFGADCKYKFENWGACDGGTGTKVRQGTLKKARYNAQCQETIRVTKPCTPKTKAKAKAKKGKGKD
Description: Binding affinity to recombinant midkine after 3 mins.
For orientation: Kd means the free concentration of one partner at which half of the binding sites on the other are occupied at equilibrium, for simple one-to-one binding. Take `CC(=O)N[C@H]1[C@H](O[C@H]2[C@H](O)[C@@H](O)[C@H](O[C@H]3[C@@H](O)[C@@H](CO)O[C@@H](O[C@H]4[C@H](O)[C@@H](O)[C@H](OCCNC(=O)CCOCCOCCOCCOCCNC(=O)CCCC[C@@H]5SC[C@@H]6NC(=O)N[C@@H]65)O[C@@H]4C(=O)O)[C@@H]3NC(C)=O)O[C@@H]2C(=O)O)O[C@H](CO)[C@H](O)[C@@H]1O`: the Kd was determined as 2030 nM.

For the compound `CC(=O)N[C@H]1[C@H](O[C@H]2[C@H](O)[C@@H](O)[C@H](O[C@@H]3[C@@H](NC(C)=O)[C@H](O[C@H]4[C@H](O)[C@@H](O)[C@H](OCCNC(=O)CCOCCOCCOCCOCCNC(=O)CCCC[C@@H]5SC[C@@H]6NC(=O)N[C@@H]65)O[C@@H]4C(=O)O)O[C@H](CO)[C@@H]3OS(=O)(=O)O)O[C@@H]2C(=O)O)O[C@H](COS(=O)(=O)O)[C@H](OS(=O)(=O)O)[C@@H]1O`, the Kd was determined as 11.6 nM.

Regarding `CC(=O)N[C@H]1[C@H](O[C@H]2[C@H](O)[C@@H](O)[C@H](O[C@@H]3[C@@H](NC(C)=O)[C@H](O[C@H]4[C@H](O)[C@@H](O)[C@H](OCCNC(=O)CCOCCOCCOCCOCCNC(=O)CCCC[C@@H]5SC[C@@H]6NC(=O)N[C@@H]65)O[C@@H]4C(=O)O)O[C@H](COS(=O)(=O)O)[C@@H]3OS(=O)(=O)O)O[C@@H]2C(=O)O)O[C@H](COS(=O)(=O)O)[C@H](OS(=O)(=O)O)[C@@H]1O`, the Kd stood at 2.62 nM.

As to `CC(=O)N[C@H]1[C@H](O[C@H]2[C@H](O)[C@@H](O)[C@H](O[C@@H]3[C@@H](NC(C)=O)[C@H](O[C@H]4[C@H](O)[C@@H](O)[C@H](OCCNC(=O)CCOCCOCCOCCOCCNC(=O)CCCC[C@@H]5SC[C@@H]6NC(=O)N[C@@H]65)O[C@@H]4C(=O)O)O[C@H](CO)[C@@H]3OS(=O)(=O)O)O[C@@H]2C(=O)O)O[C@H](CO)[C@H](OS(=O)(=O)O)[C@@H]1O`, the Kd was 17.8 nM.
